# Values quoted from earlier work, collected in PubChem BioAssay AID1259409 (Chemical Carcinogenesis Research Information System (CCRIS), 2018).
# Several values for one entry are separate records, joined by “and”; a condition that tells them apart may be missing. Identical values can stand only once.
# Test system: rodent chemically induced tumor inhibition, incidence and multiplicity
# Experiment: CCRIS tumor inhibitor studies
# Conditions: Route [Inhibitor]: ORAL
compound,measurement,setting,value
CSCCC(N)C(=O)O (configuration not stated),"tumour outcome (control, treated, inhibition, significance)","Carcinogen: 3'-METHYL-4-DIMETHYLAMINOAZOBENZENE, 55-80-1, Dose [Inhibitor]: 0.72% IN DIET DAILY FOR 4 WK STARTING AFTER COMPLETION OF THE FIRST 4 WK OF CARCINOGEN TREATMENT (STUDY DURATION: 20 WK), Species: RAT, Target Tissue: Type of Lesion: LIVER: TUMOR, Dose [Carcinogen]: 0.064% IN DIET DAILY FOR 8 WK, 4 WK BEFORE AND ANOTHER 4 WK AFTER AGENT TREATMENT, Promoter: NONE USED","7/15 (47%), 8/15 (53%), -13%, not calculated and 7/9 (78%), 8/12 (67%), 14%, not calculated"
same,"tumour outcome (control, treated, inhibition, significance)","Carcinogen: 4-DIMETHYLAMINOAZOBENZENE, 60-11-7, Dose [Inhibitor]: 0.5% OF DIET DAILY STARTING SIMULTANEOUSLY WITH CARCINOGEN TREATMENT AND CONTINUING THROUGH END OF STUDY (STUDY DURATION, Species: RAT, Strain/Sex: OSBORNE-MENDEL/MALE, Target Tissue: Type of Lesion: LIVER: MALIGNANT TUMOR, Dose [Carcinogen]: 0.06% OF DIET DAILY, Promoter: NONE USED","48/80 (60%), 18/20 (90%), -50%, not calculated"
same,"tumour outcome (control, treated, inhibition, significance)","Carcinogen: 7,12-DIMETHYLBENZ[A]ANTHRACENE, 57-97-6, Dose [Inhibitor]: 0.5% DIET FOR 1 YR STARTING 5 D PRIOR TO CARCINOGEN TREATMENT (STUDY DURATION: 1 YR), Species: RAT, Strain/Sex: ALBINO/FEMALE, Target Tissue: Type of Lesion: HEMATPOIETIC SYSTEM: LEUKEMIA, Dose [Carcinogen]: 1.5 MG 1/WK FOR 3 WK, Promoter: NONE USED","5/32 (16%), 2/34 (6%), 63%, not significant"
same,"tumour outcome (control, treated, inhibition, significance)","Carcinogen: 7,12-DIMETHYLBENZ[A]ANTHRACENE, 57-97-6, Dose [Inhibitor]: 0.5% DIET FOR 1 YR STARTING 5 D PRIOR TO CARCINOGEN TREATMENT (STUDY DURATION: 1 YR), Species: RAT, Strain/Sex: ALBINO/FEMALE, Target Tissue: Type of Lesion: MAMMARY GLAND: ADENOCARCINOMA, Dose [Carcinogen]: 1.5 MG 1/WK FOR 3 WK, Promoter: NONE USED","22/32 (69%), 6/34 (18%), 74%, p<0.0001"
same,"tumour outcome (control, treated, inhibition, significance)","Carcinogen: 7,12-DIMETHYLBENZ[A]ANTHRACENE, 57-97-6, Dose [Inhibitor]: 0.5% DIET FOR 1 YR STARTING 5 D PRIOR TO CARCINOGEN TREATMENT (STUDY DURATION: 1 YR), Species: RAT, Strain/Sex: ALBINO/FEMALE, Target Tissue: Type of Lesion: MAMMARY GLAND: FIBROADENOMA, Dose [Carcinogen]: 1.5 MG 1/WK FOR 3 WK, Promoter: NONE USED","21/32 (66%), 14/32 (41%), 38%, p 0.025"
same,"tumour outcome (control, treated, inhibition, significance)","Carcinogen: 7,12-DIMETHYLBENZ[A]ANTHRACENE, 57-97-6, Dose [Inhibitor]: 0.5% DIET FOR 1 YR STARTING 5 D PRIOR TO CARCINOGEN TREATMENT (STUDY DURATION: 1 YR), Species: RAT, Strain/Sex: ALBINO/FEMALE, Target Tissue: Type of Lesion: ZYMBAL'S GLAND: CARCINOMA, Dose [Carcinogen]: 1.5 MG 1/WK FOR 3 WK, Promoter: NONE USED","5/32 (16%), 6/34 (18%), -13%, not significant"
same,"tumour outcome (control, treated, inhibition, significance)","Carcinogen: DIETHYLNITROSAMINE, 55-18-5, Dose [Inhibitor]: 0, 1.5% IN DIET BEGINNING 1 WK POST CARCINOGEN DOSE (STUDY DURATION: 52 WK), Species: MOUSE, Strain/Sex: C3H/MALE, Target Tissue: Type of Lesion: LIVER: ADENOMA, Dose [Carcinogen]: 150 MG/KG ONCE, Promoter: NONE USED","14%, 9%, 36%, not calculated"
same,"tumour outcome (control, treated, inhibition, significance)","Carcinogen: DIETHYLNITROSAMINE, 55-18-5, Dose [Inhibitor]: 0, 1.5% IN DIET BEGINNING 1 WK POST CARCINOGEN DOSE (STUDY DURATION: 52 WK), Species: MOUSE, Strain/Sex: C3H/MALE, Target Tissue: Type of Lesion: LIVER: ADENOMA, Dose [Carcinogen]: 150 MG/KG ONCE, Promoter: PHENOBARBITAL, 50-06-6","16%, 22%, -38%, not calculated"
same,"tumour outcome (control, treated, inhibition, significance)","Carcinogen: DIETHYLNITROSAMINE, 55-18-5, Dose [Inhibitor]: 0, 1.5% IN DIET BEGINNING 1 WK POST CARCINOGEN DOSE (STUDY DURATION: 52 WK), Species: MOUSE, Strain/Sex: C3H/MALE, Target Tissue: Type of Lesion: LIVER: CARCINOMA, Dose [Carcinogen]: 150 MG/KG ONCE, Promoter: NONE USED","71%, 77%, -8%, not calculated"
same,"tumour outcome (control, treated, inhibition, significance)","Carcinogen: DIETHYLNITROSAMINE, 55-18-5, Dose [Inhibitor]: 0, 1.5% IN DIET BEGINNING 1 WK POST CARCINOGEN DOSE (STUDY DURATION: 52 WK), Species: MOUSE, Strain/Sex: C3H/MALE, Target Tissue: Type of Lesion: LIVER: CARCINOMA, Dose [Carcinogen]: 150 MG/KG ONCE, Promoter: PHENOBARBITAL, 50-06-6","74%, 33%, 55%, p<0.01"
same,"tumour outcome (control, treated, inhibition, significance)","Carcinogen: DIETHYLNITROSAMINE, 55-18-5, Dose [Inhibitor]: 0, 1.5% IN DIET BEGINNING 1 WK POST CARCINOGEN DOSE (STUDY DURATION: 52 WK), Species: MOUSE, Strain/Sex: C3H/MALE, Target Tissue: Type of Lesion: LUNG: ADENOMA OR ADENOCARCINOMA, Dose [Carcinogen]: 150 MG/KG ONCE, Promoter: NONE USED","6/14 (43%), 12/22 (55%), -28%, not calculated"
same,"tumour outcome (control, treated, inhibition, significance)","Carcinogen: DIETHYLNITROSAMINE, 55-18-5, Dose [Inhibitor]: 0, 1.5% IN DIET BEGINNING 1 WK POST CARCINOGEN DOSE (STUDY DURATION: 52 WK), Species: MOUSE, Strain/Sex: C3H/MALE, Target Tissue: Type of Lesion: LUNG: ADENOMA OR ADENOCARCINOMA, Dose [Carcinogen]: 150 MG/KG ONCE, Promoter: PHENOBARBITAL, 50-06-6","7/19 (37%), 0/9 (0%), 100%, not calculated"
same,"tumour outcome (control, treated, inhibition, significance)","Carcinogen: ETHIONINE, 13073-35-3, Dose [Inhibitor]: 1.35 MMOL/100 G DIET DAILY FOR 4.5 MO ADMINISTERED SIMULTANEOUSLY WITH CARCINOGEN FOLLOWED BY NORMAL STOCK DIET FOR REMA, Species: RAT, Strain/Sex: WISTAR/MALE, Target Tissue: Type of Lesion: LIVER: CARCINOMA, Dose [Carcinogen]: 0.25% OF DIET DAILY FOR 8 MO, Promoter: NONE USED","9/9 (100%), 2/8 (25%), 75%, not calculated"
same,"tumour outcome (control, treated, inhibition, significance)","Carcinogen: ETHIONINE, 13073-35-3, Dose [Inhibitor]: 2 MMOL/100 G DIET DAILY FOR 8 MO ADMINISTERED SIMULTANEOUSLY WITH CARCINOGEN FOLLOWED BY 2 MO ON NORMAL STOCK DIET (STUD, Species: RAT, Strain/Sex: WISTAR/MALE, FEMALE, Target Tissue: Type of Lesion: LIVER: CARCINOMA, Dose [Carcinogen]: 0.25% OF DIET DAILY FOR 8 MO, Promoter: NONE USED","9/10 (90%), 5/10 (50%), 44%, not calculated"
same,"tumour outcome (control, treated, inhibition, significance)","Carcinogen: ETHIONINE, 13073-35-3, Dose [Inhibitor]: 4 MMOL/100 G DIET DAILY FOR 4.5 MO ADMINISTERED SIMULTANEOUSLY WITH CARCINOGEN FOLLOWED BY NORMAL STOCK DIET FOR REMAIND, Species: RAT, Strain/Sex: WISTAR/MALE, Target Tissue: Type of Lesion: LIVER: CARCINOMA, Dose [Carcinogen]: 0.25% OF DIET DAILY FOR 8 MO, Promoter: NONE USED","9/9 (100%), 0/10 (0%), 100%, not calculated"
same,"tumour outcome (control, treated, inhibition, significance)","Carcinogen: ETHIONINE, 13073-35-3, Dose [Inhibitor]: 4 MMOL/100 G DIET DAILY FOR 8 MO ADMINISTERED SIMULTANEOUSLY WITH CARCINOGEN FOLLOWED BY 4 MO ON BASAL DIET (STUDY DURAT, Species: RAT, Strain/Sex: WISTAR/MALE, Target Tissue: Type of Lesion: LIVER: CARCINOMA, Dose [Carcinogen]: 0.25% OF DIET DAILY FOR 12 MO, Promoter: NONE USED","8/8 (100%), 0/9 (0%), 100%, not calculated"
same,"tumour outcome (control, treated, inhibition, significance)","Carcinogen: ETHIONINE, 13073-35-3, Dose [Inhibitor]: 5.4 MMOL/100 G DIET DAILY FOR 4.5 MO ADMINISTERED SIMULTANEOUSLY WITH CARCINOGEN FOLLOWED BY NORMAL STOCK DIET FOR REMAI, Species: RAT, Strain/Sex: WISTAR/MALE, Target Tissue: Type of Lesion: LIVER: CARCINOMA, Dose [Carcinogen]: 0.25% OF DIET DAILY FOR 8 MO, Promoter: NONE USED","9/9 (100%), 0/10 (0%), 100%, not calculated"
same,"tumour outcome (control, treated, inhibition, significance)","Carcinogen: ETHIONINE, 13073-35-3, Dose [Inhibitor]: 5.4 MMOL/100 G DIET DAILY FOR 8 MO ADMINISTERED SIMULTANEOUSLY WITH CARCINOGEN FOLLOWED BY 4 MO ON BASAL DIET (STUDY DUR, Species: RAT, Strain/Sex: WISTAR/MALE, Target Tissue: Type of Lesion: LIVER: CARCINOMA, Dose [Carcinogen]: 0.25% OF DIET DAILY FOR 12 MO, Promoter: NONE USED","8/8 (100%), 0/9 (0%), 100%, not calculated"
same,"tumour outcome (control, treated, inhibition, significance)","Carcinogen: N-METHYL-N-NITROSOUREA, 684-93-5, Dose [Inhibitor]: 0.5% DIET FOR 1 YR STARTING 5 D PRIOR TO CARCINOGEN TREATMENT (STUDY DURATION: 1 YR), Species: RAT, Strain/Sex: ALBINO/FEMALE, Target Tissue: Type of Lesion: HEMATOPOIETIC SYSTEM: LEUKEMIA, Dose [Carcinogen]: 50 MG/KG 1/WK FOR 2 WK, Promoter: NONE USED","9/28 (32%), 5/29 (17%), 47%, not significant"
same,"tumour outcome (control, treated, inhibition, significance)","Carcinogen: N-METHYL-N-NITROSOUREA, 684-93-5, Dose [Inhibitor]: 0.5% DIET FOR 1 YR STARTING 5 D PRIOR TO CARCINOGEN TREATMENT (STUDY DURATION: 1 YR), Species: RAT, Strain/Sex: ALBINO/FEMALE, Target Tissue: Type of Lesion: KIDNEY: MESENCHYMAL TUMOR, Dose [Carcinogen]: 50 MG/KG 1/WK FOR 2 WK, Promoter: NONE USED","15/28 (54%), 17/29 (59%), -9%, not significant"
same,"tumour outcome (control, treated, inhibition, significance)","Carcinogen: N-METHYL-N-NITROSOUREA, 684-93-5, Dose [Inhibitor]: 0.5% DIET FOR 1 YR STARTING 5 D PRIOR TO CARCINOGEN TREATMENT (STUDY DURATION: 1 YR), Species: RAT, Strain/Sex: ALBINO/FEMALE, Target Tissue: Type of Lesion: MAMMARY GLAND: ADENOCARCINOMA, Dose [Carcinogen]: 50 MG/KG 1/WK FOR 2 WK, Promoter: NONE USED","9/28 (32%), 4/29 (14%), 56%, p 0.05"
same,"tumour outcome (control, treated, inhibition, significance)","Carcinogen: N-METHYL-N-NITROSOUREA, 684-93-5, Dose [Inhibitor]: 0.5% DIET FOR 1 YR STARTING 5 D PRIOR TO CARCINOGEN TREATMENT (STUDY DURATION: 1 YR), Species: RAT, Strain/Sex: ALBINO/FEMALE, Target Tissue: Type of Lesion: MAMMARY GLAND: FIBROADENOMA, Dose [Carcinogen]: 50 MG/KG 1/WK FOR 2 WK, Promoter: NONE USED","5/28 (18%), 6/29 (21%), -17%, not significant"
